Source: patent publication US8067243B2 (priority 2008, dated 2011)
Like-named read-outs stand apart in the source and are kept apart here.

Legend:
[1] = drug screen, cited from earlier work
[2] = in vivo, cited from earlier work
[3] = human, in vivo
[4] = in vivo; cited from earlier work

## CC(N)Cc1ccccc1 (centres unmarked) [Amphetamine]
[1]
  Retention Time: 1 to 2 days

## C=CCC1(C(C)CCC)C(=O)NC(=O)NC1=O (centres unmarked) [Secobarbital]
[1]
  Retention Time: 0.042 to 1 days

## CC(=O)Oc1ccc2c3c1O[C@H]1[C@@H](OC(C)=O)C=C[C@H]4[C@@H](C2)N(C)CC[C@@]341 [heroin, diacetyl morphine]
[2]
  heroin dose excreted as morphine-3-glucuronide: Approximately 42%

## C=CCC1(CC(C)C)C(=O)NC(=O)NC1=O [Butalbital]
[1]
  Retention Time: 0.042 to 2 days

## c1ccc(C2(N3CCCCC3)CCCCC2)cc1 [Phencyclidine]
[1]; chronic use
  Retention Time, Chronic Use: up to 30 days
[1]
  Retention Time: 8 days

## CCC1(CCC(C)C)C(=O)NC(=O)NC1=O [Amobarbital]
[1]
  Retention Time: 1 to 7 days

## CN1[C@H]2CC[C@@H]1[C@@H](C(=O)O)[C@@H](OC(=O)c1ccccc1)C2 [Cocaine metabolite]
[1]
  Retention Time: 1 to 2 days

## CCOC(=O)C1(c2ccccc2)CCNCC1 [Normeperidine]
[2]
  plasma half-life: 20 h

## CCC(C)C1(CC)C(=O)NC(=O)NC1=O (centres unmarked) [Butabarbital]
[1]
  Retention Time: 1 to 7 days

## CCO [Ethanol]
[1]
  Retention Time: 0.083 to 0.583 days

## COc1ccc2c3c1O[C@H]1C(=O)CC[C@H]4[C@@H](C2)N(C)CC[C@]314 [Hydrocodone]
[3]
  Result (urine concentration): 864 ng/mL
[4]
  Retention Time: 1 to 3 days
  detection of free drug in urine by LC/MS/MS after administration: 3 days

## CN1CC[C@]23c4c5ccc(O)c4O[C@H]2C(=O)CC[C@@]3(O)[C@H]1C5 [Oxymorphone]
[2]
  dose excreted in urine: About 49%
[3]
  Result (urine concentration): 223 ng/mL
[4]
  Retention Time: 1 to 3 days
  Retention Time (SR): (SR 2-4 days)
  detection of free drug in urine by LC/MS/MS after administration: up to 3 days
  detection of free drug in urine by LC/MS/MS after slow-release dosage form: up to 4 days

## CCOC(=O)C1(c2ccccc2)CCN(C)CC1 [Meperidine]
[2]
  plasma half-life: 3 h
[4]
  Retention Time: 1 to 2 days

## C=CCC1(C(C)C)C(=O)NC(=O)NC1=O [Aprobarbital]
[1]
  Retention Time: 1 to 7 days

## COc1ccc2c3c1O[C@H]1C(=O)CC[C@@]4(O)[C@@H](C2)N(C)CC[C@]314 [Oxycodone]
[2]; po
  oral dose eliminated in urine as oxymorphone: about 14%
  oral dose eliminated in urine as total oxycodone: approximately 60%
[3]
  Result (urine concentration): 544 ng/mL
[4]
  Retention Time: 1 to 3 days
  Retention Time (SR): (SR 2-4 days)
  detection of free drug in urine by LC/MS/MS after administration: up to 3 days
  detection of free drug in urine by LC/MS/MS after slow-release dosage form: up to 4 days

## CCCC(C)C1(CC)C(=O)NC(=O)NC1=O (centres unmarked) [Pentobarbital]
[1]
  Retention Time: 0.042 to 1 days

## COc1ccc2c3c1O[C@H]1[C@@H](O)C=C[C@H]4[C@@H](C2)N(C)CC[C@@]341 [Codeine]
[2]; po
  time to peak plasma concentration: one
[3]
  Result (urine concentration): 327 ng/mL

## CN1CC[C@]23c4c5ccc(O)c4O[C@H]2[C@@H](O)C=C[C@H]3[C@H]1C5 [Morphine]
[2]
  dose excreted in urine as morphine-3-glucuronide: 70%
[3]
  Result (urine concentration): 104 ng/mL
